Reference: patent US20180118718A1, “Substituted Quinoxaline Derivatives” (Selvita S.A., priority 2015, published 2018)
Counter-ions that a name gives are not always drawn.

Target: T1, Human recombinant His-tagged PFKFB3 (Homo sapiens, UniProt Q16875)
T1 construct: His; made in house
Assay: PFKFB3 IC50 Determination Assay (in vitro kinase assay, modified ADP-Glo system)
Format: biochemical
Settings: ATP 20 μM and fructose-6-phosphate 2 μM (Km), 25 nM PFKFB3, 2 h, rt, ADP-Glo luminescence
Experimental: PFKFB3 IC50 Determination Assay
In vitro kinase assay used to determine IC50 values for tested inhibitors is based on a modified ADP-Glo™ system (Promega) and consists of two parts:
1. Kinase reaction—performed in optimized conditions. At this step PFKFB3 phosphorylates its substrate Fructose-6-phosphate using ATP as a source of phosphate to produce Fructose-2,6-bisphosphate and ADP. Reaction is performed at Km values for ATP and substrate using optimized buffer composition and time of the reaction. Human recombinant His-tagged PFKFB3 (PFKFB3 BATCH II SEC) with confirmed activity is produced and purified in-house. 2. Detection of ADP as a product of the reaction using ADP-Glo™ system. This part is conducted by using the commercially available kit ADP-Glo™ Kinase Assay (Promega, cat. No# V9103) according to manufacturer's instruction, modified by 5x dilutions of assay reagents (both ADP-Glo™ Reagent and Kinase Detection Solution).
Test compounds are dissolved in DMSO and then transferred to the V-bottom 96-well plate.
15 μL per well of Mix 1 is transferred to assay wells of 96-well white plate. […] Total reaction volume is 30 μL per well. Samples are tested in duplicates. Final concentration of DMSO in the reaction is 6.7%. Conditions needed for performing PFKFB3 (PFKFB3 BATCH II SEC) in vitro kinase assay are given below:
This protocol is based on Technical Bulletin, ADP-Glo™ Kinase Assay (Promega) and is adapted to 96-well plate containing 30 μL reaction mixture:
30 μL of 5x diluted ADP-Glo™ Reagent is added to each well of 96-well plate containing 30 μL of reaction mixture. The plate is incubated for 90 minutes on a shaker at RT. 60 μL of 5x diluted Kinase Detection Solution is added to each well of 96-well plate containing 60 μL of the solution (ratio of kinase reaction volume to ADP-Glo™ Reagent volume to Kinase Detection Solution volume is maintained at 1:1:2). Plate is incubated for 40 minutes on a shaker at RT, protected from light. Luminescence is measured in the plate reader Synergy 2 (BioTek).
Luminescent readouts for compounds tested in 10 concentrations (routinely from 100 μM to […], […] serial dilutions) in duplicates, as well as for positive control, are first normalized to no-substrate negative control by its subtraction. In the next step, % of normalized positive control is calculated for each data point and plotted against test compound concentration:
% of control percent of positive control normalized to no-substrate negative control Lumcpd luminescence of test compound Lumneg luminescence of no-substrate negative control Lumpos luminescence of positive control
IC50 parameter is determined by the GraphPad Prism 5.0 software [log(inhibitor) vs. response −Variable slope (four parameters)].

T1 sequence (Q16875 whole entry): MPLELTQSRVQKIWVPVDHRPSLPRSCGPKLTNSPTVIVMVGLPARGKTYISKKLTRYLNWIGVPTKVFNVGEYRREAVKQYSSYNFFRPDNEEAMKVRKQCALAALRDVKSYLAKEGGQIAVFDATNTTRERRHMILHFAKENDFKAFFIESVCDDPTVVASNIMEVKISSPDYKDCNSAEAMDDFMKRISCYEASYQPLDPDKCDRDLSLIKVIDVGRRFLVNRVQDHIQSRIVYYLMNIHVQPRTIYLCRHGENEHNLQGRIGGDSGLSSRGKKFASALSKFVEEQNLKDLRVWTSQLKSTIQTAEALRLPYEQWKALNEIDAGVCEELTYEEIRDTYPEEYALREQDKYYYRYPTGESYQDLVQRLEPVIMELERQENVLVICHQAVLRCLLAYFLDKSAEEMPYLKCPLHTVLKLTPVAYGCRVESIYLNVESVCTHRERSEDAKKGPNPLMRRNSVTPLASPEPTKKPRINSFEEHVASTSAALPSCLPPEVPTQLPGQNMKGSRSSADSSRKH

Structure (SMILES)	IC50 [µM]
Cn1ccc2ccc(-c3cc(N4CCc5ccncc54)cc4nccnc34)cc21 [Example 2, 5-(1-Methyl-1H-indol-6-yl)-7-{1H,2H,3H-pyrrolo[2,3-c]pyridin-1-yl}quinoxaline]	0.001 to 1
COc1ccc(Cl)c(-c2cc(Nc3cnccc3S(C)(=O)=O)cc3nccnc23)c1 [Example 5, 8-(2-Chloro-5-methoxyphenyl)-N-(4-methanesulfonylpyridin-3-yl)quinoxalin-6-amine]	1 to 10
Cn1ccc2ccc(-c3cc(Nc4cccnc4S(C)(=O)=O)cc4nccnc34)cc21 [Example 6, N-(2-Methanesulfonylpyridin-3-yl)-8-(1-methyl-1H-indol-6-yl)quinoxalin-6-amine]	0.001 to 1
Cn1ccc2ccc(-c3cc(Nc4cc(Br)ccc4S(C)(=O)=O)cc4nccnc34)cc21 [Example 10, N-(5-Bromo-2-methanesulfonylphenyl)-8-(1-methyl-1H-indol-6-yl)quinoxalin-6-amine]	0.001 to 1
Cn1ccc2ccc(-c3cc(Nc4ccc[nH]c4=O)cc4nccnc34)cc21 [Example 14, 3-{[8-(1-Methyl-1H-indol-6-yl)quinoxalin-6-yl]amino}pyridin-2-ol]	0.001 to 1
Cn1ccc2ccc(-c3cc(Nc4ccccc4S(=O)(=O)N4CCNCC4)cc4nccnc34)cc21 [Example 15, 8-(1-Methyl-1H-indol-6-yl)-N-[2-(piperazine-1-sulfonyl)phenyl]quinoxalin-6-amine trifluoroacetate]	1 to 10
Cn1ccc2ccc(-c3cc(Nc4cccnc4N)cc4nccnc34)cc21 [Example 17, 3-N-[8-(1-methyl-1H-indol-6-yl)quinoxalin-6-yl]pyridine-2,3-diamine]	1 to 10
Cn1ccc2ccc(-c3cc(Nc4ccccc4S(C)(=O)=O)cc4nccnc34)nc21 [Example 21, N-(2-Methanesulfonylphenyl)-8-{1-methyl-1H-pyrrolo[2,3-b]pyridin-6-yl}quinoxalin-6-amine trifluoroacetate]	0.001 to 1
Cc1coc2ccc(-c3cc(Nc4cnccc4C#N)cc4nccnc34)cc12 [Example 24, 3-{[8-(3-methyl-1-benzofuran-5-yl)quinoxalin-6-yl]amino}pyridine-4-carbonitrile]	0.001 to 1
Cn1ccc2ccc(-c3cc(Nc4cc(C#N)ccc4S(C)(=O)=O)cc4nccnc34)cc21 [Example 25, 4-Methanesulfonyl-3-{[8-(1-methyl-1H-indol-6-yl)quinoxalin-6-yl]amino}benzonitrile]	0.001 to 1
Cc1coc2ccc(-c3cc(Nc4cnccc4C(N)=O)cc4nccnc34)cc12 [Example 26, 3-{[8-(3-Methyl-1-benzofuran-5-yl)quinoxalin-6-yl]amino}pyridine-4-carboxamide]	0.001 to 1
Cn1ccc2ccc(-c3cc(Nc4ncncc4S(C)(=O)=O)cc4nccnc34)cc21 [Example 27, N-(5-Methanesulfonylpyrimidin-4-yl)-8-(1-methyl-1H-indol-6-yl)quinoxalin-6-amine]	1 to 10
Cn1ccc2cc(-c3cc(Nc4cnccc4C#N)cc4nccnc34)ccc21 [Example 28, 3-{[8-(1-Methyl-1H-indol-5-yl)quinoxalin-6-yl]amino}pyridine-4-carbonitrile]	10 to 100
Cn1ccc2cc(-c3cc(Nc4cnccc4C(N)=O)cc4nccnc34)ccc21 [Example 29, 3-{[8-(1-Methyl-1H-indol-5-yl)quinoxalin-6-yl]amino}pyridine-4-carboxamide]	1 to 10
Cn1ccc2cc(-c3cc(Nc4cnccc4Cl)cc4nccnc34)ccc21 [Example 30, N-(4-Chloropyridin-3-yl)-8-(1-methyl-1H-indol-5-yl)quinoxalin-6-amine]	10 to 100
Cn1cc(-c2ccncc2Nc2cc(-c3ccc4c(ccn4C)c3)c3nccnc3c2)cn1 [Example 31, 8-(1-Methyl-1H-indol-5-yl)-N-[4-(1-methyl-1H-pyrazol-4-yl)pyridin-3-yl]quinoxalin-6-amine]	10 to 100
CN1CCN(c2ccncc2Nc2cc(-c3ccc4c(ccn4C)c3)c3nccnc3c2)CC1 [Example 32, 8-(1-Methyl-1H-indol-5-yl)-N-[4-(4-methylpiperazin-1-yl)pyridin-3-yl]quinoxalin-6-amine]	1 to 10
Cn1ccc2cc(-c3cc(Nc4cnccc4-c4cncnc4)cc4nccnc34)ccc21 [Example 33, 8-(1-Methyl-1H-indol-5-yl)-N-[4-(pyrimidin-5-yl)pyridin-3-yl]quinoxalin-6-amine]	10 to 100
Cn1ccc2cc(-c3cc(N4CCc5ccncc54)cc4nccnc34)ccc21 [Example 34, 5-(1-Methyl-1H-indol-5-yl)-7-{1H,2H,3H-pyrrolo[2,3-c]pyridin-1-yl}quinoxaline]	10 to 100
Cn1ccc2ccc(-c3cc(Nc4cc([N+](=O)[O-])ccc4S(C)(=O)=O)cc4nccnc34)cc21 [Example 35, N-(2-Methanesulfonyl-5-nitrophenyl)-8-(1-methylindol-6-yl)quinoxalin-6-amine]	0.001 to 1
Cn1ccc2ccc(-c3cc(Nc4cc(N)ccc4S(C)(=O)=O)cc4nccnc34)cc21 [Example 36, 6-Methanesulfonyl-N1-[8-(1-methyl-1H-indol-6-yl)quinoxalin-6-yl]benzene-1,3-diamine]	0.001 to 1
Cn1ccc2cc(-c3cc(Nc4cc(CN)ccc4S(C)(=O)=O)cc4nccnc34)ccc21 [Example 38, N-[5-(Aminomethyl)-2-methanesulfonylphenyl]-8-(1-methyl-1H-indol-5-yl)quinoxalin-6-amine]	10 to 100
Cc1ccc(C)c(-c2cc(Nc3cnccc3S(C)(=O)=O)cc3nccnc23)c1 [Example 39, 8-(2,5-Dimethylphenyl)-N-(4-methanesulfonylpyridin-3-yl)quinoxalin-6-amine]	0.001 to 1
CN1CCN(c2ccncc2Nc2cc(-c3ccc4ccn(C)c4c3)c3nccnc3c2)CC1 [Example 40, 8-(1-Methyl-1H-indol-6-yl)-N-[4-(4-methylpiperazin-1-yl)pyridin-3-yl]quinoxalin-6-amine]	0.001 to 1
CC(=O)Nc1ccc(S(C)(=O)=O)c(Nc2cc(-c3ccc4ccn(C)c4c3)c3nccnc3c2)c1 [Example 41, N-(4-Methanesulfonyl-3-{[8-(1-methyl-1H-indol-6-yl)quinoxalin-6-yl]amino}phenyl)acetamide]	1 to 10
Cn1ccc2ccc(-c3cc(Nc4cc(-n5ccnc5)ccc4S(C)(=O)=O)cc4nccnc34)cc21 [Example 42, N-[5-(1H-Imidazol-1-yl)-2-methanesulfonylphenyl]-8-(1-methyl-1H-indol-6-yl)quinoxalin-6-amine]	0.001 to 1
Cn1ccc2ccc(-c3cc(Nc4cc(-c5nn[nH]n5)ccc4S(C)(=O)=O)cc4nccnc34)cc21 [Example 43, N-[2-Methanesulfonyl-5-(2H-1,2,3,4-tetrazol-5-yl)phenyl]-8-(1-methyl-1H-indol-6-yl)quinoxalin-6-amine]	0.001 to 1
Cn1ccc2ccc(-c3cc(Nc4c[n+]([O-])ccc4S(C)(=O)=O)cc4nccnc34)cc21 [Example 44, 4-Methanesulfonyl-3-{[8-(1-methyl-1H-indol-6-yl)quinoxalin-6-yl]amino}pyridin-1-ium-1-olate]	0.001 to 1
CN1CCN(c2ccc(S(C)(=O)=O)c(Nc3cc(-c4ccc5ccn(C)c5c4)c4nccnc4c3)c2)CC1 [Example 45, N-[2-Methanesulfonyl-5-(4-methylpiperazin-1-yl)phenyl]-8-(1-methyl-1H-indol-6-yl)quinoxalin-6-amine]	1 to 10
